Measured values from US8455448B2, “Myostatin isoform” (Myostin Therapeutics Pty Ltd, priority 2004, dated 2013).

Legend:
[1] = tested on: myostatin mRNA expression; experiment: Myostatin mRNA expression in C2C12 murine myoblasts (real-time PCR); assay type: cell-based; settings: 10 μg/ml, FIG. 14
Description: C2C12 myoblasts were seeded in 10 cm diameter tissue culture plates (Nunc, Roskilde, Denmark) at a cell density of 3000 cells per cm^2 in 10 ml of Dulbecco's modified Eagle's medium (DMEM, Invitrogen, California) supplemented with foetal bovine serum (FBS, 10% v/v, Invitrogen), penicillin (1×10^5 IU/I, Sigma, St Louis, Mo., USA) and streptomycin (100 mg/l, Sigma) buffered with NaHCO3 containing phenol red (7.22 nmol/l) as a pH indicator, and incubated overnight at 37° C. with 5% CO2. For a set of eight plates (chronic treatment, designated “A”) the medium was replaced with the test medium: DMEM with 2.5% FBS supplemented with 0 or 10 μg/ml oMSV47 (n=4). The plates “A” were then incubated at 37° C. with 5% CO2 for 48 hours. […] RNA was re-suspended in diethyl pyrocarbonate-treated water and the total RNA concentration determined by measuring absorbance at 260 nm (Nanodrop Spectrophotometer, Delaware, USA). […] The following experimental run protocol was used: denaturation (95° C. for 5 min), amplification (95° C. for 5 sec, 62° C. for 10 sec, 72° C. for 20 sec, with a single fluorescence measurement, 50 cycles), melt curve (60-95° C. with a heating rate of 0.1° C. per sec with continuous fluorescence measurement) on a LightCycler 2.0 PCR machine (Roche Diagnostics). Arbitrary concentrations were calculated by the Lightcycler software using a standard curve (Roche Diagnostics).

[2] = tested on: human skeletal muscle myoblasts; experiment: Proliferation assay of human primary myoblasts (methylene blue); assay type: cell-based; settings: 0-10 μg/ml, 96 h, FIG. 12B
Description: Human skeletal muscle myoblasts (Cambrex, Australia) were seeded in 96-well tissue culture plates (Nunc, Roskilde, Denmark) at a cell density of 2000 cells per well in 200 μl of Skeletal Muscle Basal Medium (Cambrex, Australia) supplemented with foetal bovine serum (FBS, 10% v/v, Cambrex, Australia), and incubated overnight at 37° C. with 5% CO2. The medium was replaced with Dulbecco's modified Eagle's medium (DMEM, Invitrogen, California) supplemented with 5% foetal bovine serum (FBS, Invitrogen, California), penicillin (1×10^5 IU/l, Sigma, St Louis, Mo., USA) and streptomycin (100 mg/l, Sigma) buffered with NaHCO3 containing phenol red (7.22 nmol/l) as a pH indicator with 0, 0.1, 1, 5 and 10 μg/ml rhMSV38 or roMSV47 protein in a semi-random arrangement of eight replicates (n=8) for each test medium. Plates were incubated at 37° C. with 5% CO2 for 96 hours, and then the medium was removed. The wells were washed with 200 μl of phosphate buffered saline (PBS, Oxoid, UK) buffer and fixed with 100 μl of 10% formaldehyde, 0.9% NaCl solution for at least one hour. The fixative was then removed and 100 μl of 1% methylene blue stain in 0.01 M borate buffer (pH 8.5) was added to each well and incubated for 30 min at room temperature. Excess stain was removed by four sequential washes in borate buffer. Methylene blue was eluted from the cells by the addition of 100 μl 1:1 (v/v) ethanol/0.1 HCl. The plates were gently shaken and the absorbance was measured at 655 nm using a microplate photometer (VersaMax, Molecular Devices, CA).
Human skeletal muscle myoblasts (Cambrex, Australia) were seeded in 96-well tissue culture plates (Nunc, Roskilde, Denmark) at a cell density of 2000 cells per well in 200 μl of Skeletal Muscle Basal Medium (Cambrex, Australia) supplemented with foetal bovine serum (FBS, 10% v/v, Cambrex, Australia), and incubated overnight at 37° C. with 5% CO2. The medium was replaced with Dulbecco's modified Eagle's medium (DMEM, Invitrogen, California) supplemented with 5% foetal bovine serum (FBS, Invitrogen, California), penicillin (1×10^5 IU/l, Sigma, St Louis, Mo., USA) and streptomycin (100 mg/l, Sigma) buffered with NaHCO3 containing phenol red (7.22 nmol/l) as a pH indicator with no added protein, 1.5 or 3.0 μg/ml recombinant bovine mature myostatin alone and with combination of 0.3, 1, 3, 10 molar ratio of rhMSV38 to myostatin, and the same amounts of rhMSV38 without myostatin in a semi-random arrangement of eight replicates (n=8) for each test medium. Plates were incubated at 37° C. with 5% CO2 for 48 hours, and then the medium was removed. […] The plates were gently shaken and the absorbance was measured at 655 nm using a microplate photometer (VersaMax, Molecular Devices, CA).

Substance: roMSV47: 47 amino acid C-terminal mature ovine MSV fragment (SEQ ID NO: 50), recombinant from E. coli (IIFLEVYIQFCSILGEAVFKRQSKSIHFCQNFKIIACLCNTAAFRMK; Ovis aries)
- expression of myostatin (real-time PCR) ([1]; acutely, 6 h from 48 to 54 h): suppresses the expression of myostatin
- expression of myostatin (real-time PCR) ([1]; chronically, from seeding to 48 h): suppresses the expression of myostatin
- proliferation of human myoblasts [2]: able to stimulate human myoblast proliferation
